Literature values as cited in PMC7559897, “Designed Antimicrobial Peptides Against Trauma-Related Cutaneous Invasive Fungal Wound Infections” (Journal of Fungi, 2020).

Tested on: P. aeruginosa
Settings: subinhibitory concentrations, growth at higher concentrations; cited from earlier work
Text: The rapid destruction of pathogenic cells by dAMPs infers a theoretical reduced likelihood of developing bacterial resistance. However, to confirm this, dAMPs were serially passaged against Candida and against both P. aeruginosa and S. aureus at subinhibitory concentrations to ascertain whether resistance, assessed by growth at higher concentrations, occurs. Resistance was not observed.

In the case of `CNC(C)C1CCC(N)C(OC2C(N)CC(N)C(OC3OCC(C)(O)C(NC)C3O)C2O)O1` (stereo not shown) [Gentamicin], the “resistance during serial passaging against P. aeruginosa” value is listed as “strong resistance”.
